What was measured:
human M2 = human M2 (Homo sapiens, UniProt P08172); experiment: Calcium mobilization assay, muscarinic selectivity; type: cell-based
[1] = Binding in plasma from human (equilibrium dialysis); type: in vitro ADME; conditions: human, plasma, fraction unbound; equilibrium dialysis; read-out: human fu,plasma
Method: Binding in plasma from rat and human.
Determination of compounds’ fraction unbound (f u) in plasma from rat and human was conducted in vitro via equilibrium dialysis using HTDialysis membrane plates. Dialysis membranes (four paired strips per HTD assay) were hydrated as described by the manufacturer and inserted into the HTD plate, which was assembled and prepared for sample addition by the dispensing of blank buffer (DPBS, 100 µL/well) into the ‘top half’ of each membrane-split well. Each compound was diluted into plasma from each species (5 µM final concentration), which was aliquoted in triplicate to the ‘bottom half’ of the prepared HTD plate wells. The HTD plate was sealed and incubated for 6 hours at 37 °C. Following incubation, each well (both top and bottom halves) were transferred (20 µL) to the corresponding wells of a 96-shallow-well (V-bottom) plate. The daughter plates were then matrix-matched (buffer side wells received equal volume of plasma, and plasma side wells received equal volume of buffer), and extraction solution (120 µL; acetonitrile containing 50 nM carbamazepine as IS) was added to all wells of both daughter plates to precipitate protein and extract test article. The plates were then sealed and centrifuged (3500 rcf) for 10 minutes at ambient temperature. Supernatant (60 µL) from each well of the daughter plates was then transferred to the corresponding wells of new daughter plates (96-shallow-well, V bottom) containing water (Milli-Q, 60 µL/well), and the plates were sealed in preparation for LC-MS/MS analysis (see below). fu was calculated as (analyte to IS MS peak area ratio from Trans-buffer side) / (analyte to IS MS peak area ratio from Cis-plasma side). Mean values for each species were calculated from 3 replicates.

CYP 2C9 = target: T1, CYP 2C9 (Homo sapiens, UniProt P11712); experiment: P450 inhibition in pooled human liver microsomes; type: in vitro ADME; conditions: pooled HLM, NADPH, CYP-specific probe substrates
T1 construct: from tissue; host or cells: pooled human liver microsomes (according to the earlier reading)

CYP 3A4 = target: T2, CYP 3A4 (Homo sapiens, UniProt P08684); experiment: P450 inhibition in pooled human liver microsomes; type: in vitro ADME; conditions: pooled HLM, NADPH, CYP-specific probe substrates
T2 construct: from tissue; host or cells: pooled human liver microsomes (according to the earlier reading)

Adrenergic α1A = target: T3, Adrenergic α1A (Rattus norvegicus, UniProt P43140); experiment: Lead Profiling Screen – Eurofins Panlabs; type: binding; conditions: read-out: % inh at 10 μM
T3 construct: Eurofins Panlabs

Adrenergic β1 = target: T4, Adrenergic β1 (Homo sapiens, UniProt P08588); experiment: Lead Profiling Screen – Eurofins Panlabs; type: binding; conditions: read-out: % inh at 10 μM
T4 construct: Eurofins Panlabs (contract screen)

Bradykinin B2 = target: T5, Bradykinin B2 (Homo sapiens, UniProt P30411); experiment: Lead Profiling Screen – Eurofins Panlabs; type: binding; conditions: read-out: % inh at 10 μM
T5 construct: Eurofins Panlabs (contract screen)

Cannabinoid CB1 = target: T6, Cannabinoid CB1 (Homo sapiens, UniProt P21554); experiment: Lead Profiling Screen – Eurofins Panlabs; type: binding; conditions: read-out: % inh at 10 μM
T6 construct: Eurofins Panlabs (contract screen)

Dopamine D1 = target: T7, Dopamine D1 (Homo sapiens, UniProt P21728); experiment: Lead Profiling Screen – Eurofins Panlabs; type: binding; conditions: read-out: % inh at 10 μM
T7 construct: Eurofins Panlabs (contract screen)

Dopamine D4.2 = experiment: Lead Profiling Screen – Eurofins Panlabs; type: binding, human
Glucocorticoid = Glucocorticoid (Homo sapiens, UniProt P04150); experiment: Lead Profiling Screen – Eurofins Panlabs; type: binding; conditions: read-out: % inh at 10 μM
Glutamate, NMDA, Glycine = Glutamate, NMDA, Glycine (Rattus norvegicus, UniProt P35439); experiment: Lead Profiling Screen – Eurofins Panlabs; type: binding; conditions: read-out: % inh at 10 μM
Histamine H3 = Histamine H3 (Homo sapiens, UniProt Q9Y5N1); experiment: Lead Profiling Screen – Eurofins Panlabs; type: binding; conditions: read-out: % inh at 10 μM
Melatonin MT1 = Melatonin MT1 (Homo sapiens, UniProt P48039); experiment: Lead Profiling Screen – Eurofins Panlabs; type: binding; conditions: read-out: % inh at 10 μM
Neuropeptide Y Y2 = Neuropeptide Y Y2 (Homo sapiens, UniProt P49146); experiment: Lead Profiling Screen – Eurofins Panlabs; type: binding; conditions: read-out: % inh at 10 μM
Nicotinic Acetylcholine = experiment: Lead Profiling Screen – Eurofins Panlabs; type: binding, human
Potassium Channel [KATP] = Potassium Channel [KATP] (Cricetus cricetus, UniProt Q09427); experiment: Lead Profiling Screen – Eurofins Panlabs; type: binding, hamster; conditions: read-out: % inh at 10 μM
[2] = target: Serotonin (5-Hydroxytryptamine) 5-HT1A (Homo sapiens, UniProt P08908); experiment: Lead Profiling Screen – Eurofins Panlabs; type: binding; conditions: read-out: % inh at 10 μM
[3] = target: Serotonin (5-Hydroxytryptamine) 5-HT3 (Homo sapiens, UniProt P46098); experiment: Lead Profiling Screen – Eurofins Panlabs; type: binding; conditions: read-out: % inh at 10 μM
Sigma σ1 = Sigma σ1 (Homo sapiens, UniProt Q99720); experiment: Lead Profiling Screen – Eurofins Panlabs; type: binding; conditions: read-out: % inh at 10 μM
Sodium Channel, Site 2 = experiment: Lead Profiling Screen – Eurofins Panlabs; type: binding, rat
Tachykinin NK1 = Tachykinin NK1 (Homo sapiens, UniProt P25103); experiment: Lead Profiling Screen – Eurofins Panlabs; type: binding; conditions: read-out: % inh at 10 μM
Transporter, GABA = experiment: Lead Profiling Screen – Eurofins Panlabs; type: binding, rat
[4] = target: Transporter, Norepinephrine (NET) (Homo sapiens, UniProt P23975); experiment: Lead Profiling Screen – Eurofins Panlabs; type: binding; conditions: read-out: % inh at 10 μM
Transporter, Norepinephrine (NET), sequence (P23975 whole entry): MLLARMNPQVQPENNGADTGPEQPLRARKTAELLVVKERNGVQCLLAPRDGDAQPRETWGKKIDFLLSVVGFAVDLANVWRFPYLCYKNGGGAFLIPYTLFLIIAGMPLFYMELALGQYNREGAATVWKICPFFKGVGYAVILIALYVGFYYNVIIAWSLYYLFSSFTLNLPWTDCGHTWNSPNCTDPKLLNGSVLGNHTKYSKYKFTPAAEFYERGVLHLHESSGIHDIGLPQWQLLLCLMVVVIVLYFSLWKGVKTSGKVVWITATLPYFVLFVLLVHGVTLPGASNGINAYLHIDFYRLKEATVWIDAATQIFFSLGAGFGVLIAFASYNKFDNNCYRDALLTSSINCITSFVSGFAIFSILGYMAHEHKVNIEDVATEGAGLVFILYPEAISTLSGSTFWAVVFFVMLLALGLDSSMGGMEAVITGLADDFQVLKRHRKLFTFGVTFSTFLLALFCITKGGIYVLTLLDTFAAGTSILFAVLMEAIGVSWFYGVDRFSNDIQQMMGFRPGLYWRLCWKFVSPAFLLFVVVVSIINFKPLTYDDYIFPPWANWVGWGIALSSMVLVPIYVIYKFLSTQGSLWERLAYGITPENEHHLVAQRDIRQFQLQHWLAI

human M2, sequence (P08172 whole entry): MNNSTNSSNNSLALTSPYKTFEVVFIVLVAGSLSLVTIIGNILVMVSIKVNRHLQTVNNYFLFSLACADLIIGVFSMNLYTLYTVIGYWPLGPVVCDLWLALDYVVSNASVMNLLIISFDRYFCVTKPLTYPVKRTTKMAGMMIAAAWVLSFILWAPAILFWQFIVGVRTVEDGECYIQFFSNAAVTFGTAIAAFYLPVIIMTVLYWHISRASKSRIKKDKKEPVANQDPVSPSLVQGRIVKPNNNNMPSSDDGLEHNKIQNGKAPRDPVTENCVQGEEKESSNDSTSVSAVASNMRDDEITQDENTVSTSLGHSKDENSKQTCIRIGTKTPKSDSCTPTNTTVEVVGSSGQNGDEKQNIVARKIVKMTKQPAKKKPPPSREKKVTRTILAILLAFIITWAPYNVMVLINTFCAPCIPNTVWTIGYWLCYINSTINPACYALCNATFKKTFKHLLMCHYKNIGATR
Potassium Channel [KATP], sequence (Q09427 whole entry): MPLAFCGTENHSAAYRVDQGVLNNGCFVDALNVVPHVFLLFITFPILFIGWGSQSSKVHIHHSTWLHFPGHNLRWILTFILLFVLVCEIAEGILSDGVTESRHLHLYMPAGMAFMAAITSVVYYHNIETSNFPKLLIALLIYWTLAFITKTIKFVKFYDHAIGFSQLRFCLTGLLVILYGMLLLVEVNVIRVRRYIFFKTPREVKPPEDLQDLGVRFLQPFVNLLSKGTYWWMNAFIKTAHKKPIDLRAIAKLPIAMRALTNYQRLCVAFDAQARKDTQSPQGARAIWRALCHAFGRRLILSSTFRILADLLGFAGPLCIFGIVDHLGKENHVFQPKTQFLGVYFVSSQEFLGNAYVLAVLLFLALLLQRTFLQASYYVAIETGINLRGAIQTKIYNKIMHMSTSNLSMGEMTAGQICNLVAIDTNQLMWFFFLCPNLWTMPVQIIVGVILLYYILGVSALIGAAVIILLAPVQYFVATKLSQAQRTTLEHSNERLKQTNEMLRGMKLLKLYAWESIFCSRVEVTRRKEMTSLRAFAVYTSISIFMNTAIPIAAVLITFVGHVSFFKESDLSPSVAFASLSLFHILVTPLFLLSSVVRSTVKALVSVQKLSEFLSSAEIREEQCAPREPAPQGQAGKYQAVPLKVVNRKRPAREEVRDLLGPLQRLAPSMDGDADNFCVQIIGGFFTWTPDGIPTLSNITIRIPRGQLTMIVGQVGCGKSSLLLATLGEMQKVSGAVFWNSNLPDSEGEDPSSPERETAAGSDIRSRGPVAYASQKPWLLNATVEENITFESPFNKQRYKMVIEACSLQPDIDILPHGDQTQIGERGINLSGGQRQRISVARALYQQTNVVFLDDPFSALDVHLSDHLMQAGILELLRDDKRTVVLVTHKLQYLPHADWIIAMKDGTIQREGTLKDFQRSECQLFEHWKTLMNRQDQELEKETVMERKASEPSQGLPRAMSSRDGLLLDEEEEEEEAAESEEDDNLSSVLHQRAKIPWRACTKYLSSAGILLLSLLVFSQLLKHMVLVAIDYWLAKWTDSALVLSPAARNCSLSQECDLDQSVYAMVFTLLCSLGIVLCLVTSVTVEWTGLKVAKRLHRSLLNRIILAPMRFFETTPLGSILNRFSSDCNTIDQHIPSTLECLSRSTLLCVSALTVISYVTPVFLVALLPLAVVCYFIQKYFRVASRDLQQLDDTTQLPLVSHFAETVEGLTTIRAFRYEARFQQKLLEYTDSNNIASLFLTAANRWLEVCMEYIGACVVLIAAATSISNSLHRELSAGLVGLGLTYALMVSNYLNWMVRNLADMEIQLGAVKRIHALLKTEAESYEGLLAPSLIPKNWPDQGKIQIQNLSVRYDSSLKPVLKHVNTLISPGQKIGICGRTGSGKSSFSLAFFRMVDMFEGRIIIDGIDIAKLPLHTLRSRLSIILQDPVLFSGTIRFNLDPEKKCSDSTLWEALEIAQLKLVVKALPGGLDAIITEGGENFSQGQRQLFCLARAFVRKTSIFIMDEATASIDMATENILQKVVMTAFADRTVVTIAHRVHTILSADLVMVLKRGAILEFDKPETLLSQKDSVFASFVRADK
Histamine H3, sequence (Q9Y5N1 whole entry): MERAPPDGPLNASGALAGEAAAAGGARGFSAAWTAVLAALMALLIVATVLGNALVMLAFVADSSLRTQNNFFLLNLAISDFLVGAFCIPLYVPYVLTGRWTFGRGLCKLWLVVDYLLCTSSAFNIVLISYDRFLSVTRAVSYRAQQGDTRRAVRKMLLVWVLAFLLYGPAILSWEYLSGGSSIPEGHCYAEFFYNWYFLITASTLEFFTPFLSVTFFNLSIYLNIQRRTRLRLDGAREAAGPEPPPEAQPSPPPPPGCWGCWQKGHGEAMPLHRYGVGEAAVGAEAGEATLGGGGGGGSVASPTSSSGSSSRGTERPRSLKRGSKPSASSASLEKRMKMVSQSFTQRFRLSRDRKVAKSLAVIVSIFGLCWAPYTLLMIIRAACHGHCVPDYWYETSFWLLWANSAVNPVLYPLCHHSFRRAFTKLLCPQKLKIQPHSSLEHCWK
T6 sequence (P21554 whole entry): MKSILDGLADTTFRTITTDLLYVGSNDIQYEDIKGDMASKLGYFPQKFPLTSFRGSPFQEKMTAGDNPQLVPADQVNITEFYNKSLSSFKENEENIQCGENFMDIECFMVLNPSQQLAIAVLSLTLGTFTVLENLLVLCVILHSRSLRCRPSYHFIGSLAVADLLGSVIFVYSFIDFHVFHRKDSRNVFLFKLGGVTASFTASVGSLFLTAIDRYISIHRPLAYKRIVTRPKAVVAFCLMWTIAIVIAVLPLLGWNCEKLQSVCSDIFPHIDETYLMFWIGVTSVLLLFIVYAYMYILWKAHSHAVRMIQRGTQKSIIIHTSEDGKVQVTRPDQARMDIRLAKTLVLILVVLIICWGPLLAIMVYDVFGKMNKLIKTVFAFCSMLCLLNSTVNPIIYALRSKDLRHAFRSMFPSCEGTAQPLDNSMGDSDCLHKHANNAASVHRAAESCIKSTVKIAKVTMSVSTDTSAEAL
T2 sequence (P08684 whole entry): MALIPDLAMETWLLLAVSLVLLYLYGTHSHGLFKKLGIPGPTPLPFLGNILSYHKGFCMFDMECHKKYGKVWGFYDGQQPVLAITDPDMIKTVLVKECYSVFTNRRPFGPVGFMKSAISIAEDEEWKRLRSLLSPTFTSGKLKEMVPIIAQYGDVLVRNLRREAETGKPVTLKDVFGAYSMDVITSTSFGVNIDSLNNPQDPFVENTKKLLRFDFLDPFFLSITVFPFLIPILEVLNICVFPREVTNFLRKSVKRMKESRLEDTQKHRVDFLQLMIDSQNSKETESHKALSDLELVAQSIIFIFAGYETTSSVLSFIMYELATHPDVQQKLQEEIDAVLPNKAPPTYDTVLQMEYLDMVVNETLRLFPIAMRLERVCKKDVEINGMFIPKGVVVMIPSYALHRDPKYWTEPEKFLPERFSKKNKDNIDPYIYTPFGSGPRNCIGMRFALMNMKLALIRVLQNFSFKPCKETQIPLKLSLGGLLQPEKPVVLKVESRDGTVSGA
T3 sequence (P43140 whole entry): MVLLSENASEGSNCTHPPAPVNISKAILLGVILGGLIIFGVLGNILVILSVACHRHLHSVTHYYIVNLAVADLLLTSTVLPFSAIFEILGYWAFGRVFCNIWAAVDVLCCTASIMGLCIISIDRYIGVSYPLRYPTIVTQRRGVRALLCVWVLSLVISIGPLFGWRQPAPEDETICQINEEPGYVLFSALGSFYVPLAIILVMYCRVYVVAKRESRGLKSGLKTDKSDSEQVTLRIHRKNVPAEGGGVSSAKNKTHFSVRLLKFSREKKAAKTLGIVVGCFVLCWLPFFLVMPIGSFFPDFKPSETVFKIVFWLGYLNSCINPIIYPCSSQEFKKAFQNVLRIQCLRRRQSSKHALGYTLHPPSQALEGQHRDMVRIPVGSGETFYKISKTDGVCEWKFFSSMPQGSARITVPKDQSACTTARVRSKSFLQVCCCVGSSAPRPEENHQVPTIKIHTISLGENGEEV
T5 sequence (P30411 whole entry): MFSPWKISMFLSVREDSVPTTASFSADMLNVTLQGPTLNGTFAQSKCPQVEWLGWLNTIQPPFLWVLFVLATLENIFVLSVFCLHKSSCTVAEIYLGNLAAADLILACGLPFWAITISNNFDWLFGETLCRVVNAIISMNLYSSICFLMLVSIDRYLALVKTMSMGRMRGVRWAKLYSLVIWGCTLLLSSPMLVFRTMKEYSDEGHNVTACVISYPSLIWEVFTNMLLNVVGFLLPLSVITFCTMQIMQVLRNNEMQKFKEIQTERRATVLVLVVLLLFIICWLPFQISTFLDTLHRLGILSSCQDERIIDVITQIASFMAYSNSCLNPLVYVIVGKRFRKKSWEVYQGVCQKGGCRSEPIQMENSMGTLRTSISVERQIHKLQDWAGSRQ

## Cc1nc(C)c2c(n1)sc1c(NCc3ccc(C(C)(C)O)cc3)nccc12 [22g]
Human M2
  EC50: 6.2 µM
  human M2 %Ach Max: [46] %Ach Max
[1]
  fraction unbound at 6 h, 5 µM: 0.014
CYP 2C9
  IC50: 17 µM
CYP 3A4
  IC50: 17 µM
Adrenergic α1A
  inhibition at 10 µM: 3%
Adrenergic β1
  inhibition at 10 µM: 3%
Bradykinin B2
  inhibition at 10 µM: -1%
Cannabinoid CB1
  inhibition at 10 µM: -4%
Dopamine D1
  inhibition at 10 µM: 21%
Dopamine D4.2
  % inh at 10 μM: 4%
Glucocorticoid
  inhibition at 10 µM: -10%
Glutamate, NMDA, Glycine
  inhibition at 10 µM: -9%
Histamine H3
  inhibition at 10 µM: 25%
Melatonin MT1
  inhibition at 10 µM: 7%
Neuropeptide Y Y2
  inhibition at 10 µM: 12%
Nicotinic Acetylcholine
  % inh at 10 μM: -2%
Potassium Channel [KATP]
  inhibition at 10 µM: 4%
[2]
  inhibition at 10 µM: 7%
[3]
  inhibition at 10 µM: -20%
Sigma σ1
  inhibition at 10 µM: 3%
Sodium Channel, Site 2
  % inh at 10 μM: 3%
Tachykinin NK1
  inhibition at 10 µM: 8%
Transporter, GABA
  % inh at 10 μM: 0%
[4]
  inhibition at 10 µM: 26%

— paper PMC11487561 (ACS Chemical Neuroscience, 2024)
